With `O=C1NC2COc3cc4c(cc3C2c2ccsc21)OCO4` (stereo not given) as the compound, how does the melting point read?
The melting point was > 250 °C.

For `CCOC(=O)c1ccccc1C(=O)c1ccc2c(c1)C(C)(C)CCC2(C)C`, which melting point is on record?
Its melting point is 58 to 59 °C.

With `COC(=O)c1ccc([C@H]2CC[C@H](C3OCCO3)CC2)cc1` as the compound, how does the melting point read?
Its melting point is 110 to 111 °C.

With `Nc1c(OCCCBr)cccc1[N+](=O)[O-]` as the compound, how does the melting point read?
The melting point was 88 to 89 °C.

With `CCCCCc1cc2c(=O)oc(C(=O)OCC)nc2s1` as the compound, how does the melting point read?
Its melting point is 69.6 to 70.5 °C.

Which melting point does the source give for `CC(C)n1nc(OS(=O)(=O)C(F)(F)F)ccc1=O` here?
Its melting point is 45 to 46 °C.

With `COC(=O)c1ccccc1-c1nc2cc(C)ccc2o1` as the compound, how does the melting point read?
Its melting point is 135 to 138 °C.

Which melting point does the source give for `COC(=O)c1c(N(CC(C)C)CC(C)C)cccc1S(=O)(=O)NC(=O)Nc1nc(OC)cc(OC)n1` here?
The melting point was 166 to 167 °C.

Which melting point does the source give for `COC(=C(C#N)C(=O)C(C)(C)C)c1ccc(Cl)cc1[N+](=O)[O-]` here?
Its melting point is 130 to 131 °C.

For `CNC(=O)c1cn(CCO)nc1[N+](=O)[O-]`, which melting point is on record?
The melting point was 138 to 140 °C.

For `COc1cc(C)ccc1-c1nc(C)c(-c2cccnc2)[nH]1`, which melting point is on record?
Its melting point is 125 to 128 °C.

For `CCCCCCCN(Cc1ccc(CCCCCC)cc1)C(Nc1ccc(C(F)(F)F)cc1)=C1C(=O)COC1=O`, which melting point is on record?
The melting point was 94 to 98 °C.

With `Nc1nc2ccccc2c2c1ncn2CCOCc1ccncc1` as the compound, how does the melting point read?
The melting point was 159 to 161 °C.

With `COc1ccc2[nH]nc(N3CCN(CCCc4c(C)[nH]c5ccccc45)CC3)c2c1` as the compound, how does the melting point read?
The melting point was 145 to 147 °C.

Which melting point does the source give for `CNC(=O)ON=C(C)CSC(F)(F)F` here?
Its melting point is 56 to 58 °C.

For `O=C1Cc2ccccc2C=Cc2c(Cl)cccc21`, which melting point is on record?
Its melting point is 151 to 153 °C.

With `C#CC12CC3CC(C1)CC(C14CC5CC(CC(C#C)(C5)C1)C4)(C3)C2` as the compound, how does the melting point read?
Its melting point is 208 to 210 °C.

With `O=C(NCCO)c1nc2ccccc2[nH]1` as the compound, how does the melting point read?
The melting point was 194 to 195 °C.

With `CCN(CC)c1ccc(N=Nc2ccc(C#N)c(C#N)c2)c(NC(C)=O)c1` as the compound, how does the melting point read?
Its melting point is 181 to 182 °C.

For `CN1CC[C@@H](c2c(O)cc(O)c3c(=O)cc(-c4c(F)cccc4F)oc23)[C@@H]1CO`, which melting point is on record?
The melting point was 242 to 244 °C.

With `CN(Cc1cccc2c1CN(C1CCC(=O)NC1=O)C2=O)C(=O)CCNC(=O)OC(C)(C)C` (stereo not given) as the compound, how does the melting point read?
The melting point was 222 to 224 °C.

For `CCc1cn(Cc2ccccc2)c(=O)[nH]c1=O`, which melting point is on record?
The melting point was 154 to 155 °C.

Which melting point does the source give for `CCCOc1cc(C)cnc1CCCCNc1ncc(Cc2ccc(C)nc2)c(=O)[nH]1` here?
Its melting point is 81 to 85 °C.

Which melting point does the source give for `Cc1nc2c(c3c1[nH]c1ccccc13)CCC(C)(C)C2` here?
The melting point was 241 to 243 °C.

For `C=CC1CCC(C2CCC3c4ccc(OCC)c(F)c4OC3C2)CC1` (stereo not given), which melting point is on record?
The melting point was 132 °C.

Which melting point does the source give for `COc1cc2c(c(Cl)c1Cl)C(=O)C(C)(C(C)C)C2` (stereo not given) here?
Its melting point is 143 °C.

For `CCCN(CCC)S(=O)(=O)c1cc(C(=O)CCl)ccc1Cl`, which melting point is on record?
The melting point was 76 °C.

Which melting point does the source give for `COc1cc(F)ccc1C(F)C1CCCCn2c1nc(-c1ccncn1)cc2=O` (racemic) here?
Its melting point is 228 to 230 °C.

Which melting point does the source give for `CSc1nc(O)c2c(n1)CCCS2` here?
The melting point was 248 °C.

For `CCc1c(C(=O)O)nn(-c2ccc(Cl)cc2Cl)c1-c1ccc(Cl)cc1`, which melting point is on record?
Its melting point is 215 °C.

Which melting point does the source give for `CN1C(=O)CC[C@]2(C)c3ccc(-c4ccc5c(c4)CCC5O)cc3CC[C@@H]12` (stereo not given in full) here?
The melting point was 185 to 190 °C.

With `CC(C)[C@H](NC(=O)CNC(=O)OCC1c2ccccc2-c2ccccc21)C(=O)O` as the compound, how does the melting point read?
Its melting point is 69 to 71 °C.

Which melting point does the source give for `COc1ccc2cc(C(C)C(=O)OCCC3(C)CCc4c(C)c(O)c(C)c(C)c4O3)ccc2c1` (stereo not given) here?
The melting point was 99.5 to 102 °C.

For `COC(=O)c1cc(-c2cccc(C(F)(F)F)c2)c[nH]c1=O`, which melting point is on record?
The melting point was 195 to 201 °C.

For `CC(C)n1nc(-c2c(-c3ccccc3)nc(N)nc2N(C)C)ccc1=O`, which melting point is on record?
Its melting point is 293 to 296 °C.

Which melting point does the source give for `NS(=O)(=O)c1ccc(-n2nc(C(F)F)cc2-c2cnccn2)cc1` here?
Its melting point is 191 to 194 °C.

For `COCc1cc(Oc2ccc3c(C(=O)OC)cccc3c2)ncn1`, which melting point is on record?
The melting point was 87 to 88 °C.

For `NNCC1(O)c2ccccc2C=Cc2ccccc21`, which melting point is on record?
The melting point was 128 to 131 °C.

With `COc1cc(Nc2cc(C(=O)O)c(C(=O)O)cc2Nc2ccccc2)cc(OC)c1OC` as the compound, how does the melting point read?
The melting point was 145 to 146 °C.

With `CCC(Cc1ccc(OC)c(C(=O)NCc2ccc(C(F)(F)F)cc2)c1)C(=O)O` (stereo not given) as the compound, how does the melting point read?
The melting point was 128 to 130 °C.

For `Nc1nc2c(ncn2OCCCOCP(=O)(O)O)c(=O)[nH]1`, which melting point is on record?
Its melting point is 247 to 250 °C.

With `OCCCCc1ccc(OCc2coc(/C=C/c3ccc(F)cc3F)n2)cc1` as the compound, how does the melting point read?
Its melting point is 75 to 76 °C.

With `COC(=O)C1=C(CC(=O)N2CCN(C)CC2)NC(CS(=O)c2ccccc2OC)=C(C(=O)OC)C1c1c(Cl)cccc1Cl` (stereo not given) as the compound, how does the melting point read?
The melting point was 160 °C.

With `CN1C(C)(C)CC(Nc2c([O-])[c+](NC3CC(C)(C)N(C)C(C)(C)C3)[c+]2[O-])CC1(C)C` as the compound, how does the melting point read?
Its melting point is > 340 °C.

With `O=C(O)c1cc(C#Cc2ccccc2)cc2c1NCCC2` as the compound, how does the melting point read?
The melting point was 187 to 188 °C.

With `Cc1ccc(CSC2=C(O)CC(C)(C)CC2=O)cc1` as the compound, how does the melting point read?
The melting point was 100 to 102 °C.

With `CCNC(=O)Nc1nc2cc(-c3cncnc3)cc(C(=O)NCC)n2n1` as the compound, how does the melting point read?
Its melting point is 317 to 321 °C.

Which melting point does the source give for `C=C(c1ccccc1OC)c1ccccc1OC` here?
The melting point was 88 to 90 °C.

With `CCNC1C(C)CN(c2c(F)cc3c(=O)c(C(=O)O)cn(C4CC4)c3c2OC)CC1C` (stereo not given) as the compound, how does the melting point read?
Its melting point is 250 to 252 °C.

Which melting point does the source give for `NS(=O)(=O)c1ccc(-c2cnn(Cc3cccc(F)c3)c(=O)c2-c2ccc(F)cc2)cc1` here?
The melting point was 220 to 222 °C.

Which melting point does the source give for `Cc1ccc(S(=O)(=O)N(c2ccc(F)cc2[N+](=O)[O-])C(C)C)cc1` here?
The melting point was 129 to 130 °C.

Which melting point does the source give for `CCOCc1nc2c(N)nc3cc(-c4cccc(C(=O)N5CCCC5)c4)ccc3c2n1CC(C)(C)O` here?
Its melting point is 216 to 218 °C.

With `Cc1cc(C(=O)c2ccccc2C(F)(F)F)c(N)s1` as the compound, how does the melting point read?
Its melting point is 136 to 137 °C.

With `CCCCCC(=O)NS(=O)(=O)/C=C/c1cc(OC(C)C)nn1Cc1ccc(Cl)cc1Cl` as the compound, how does the melting point read?
The melting point was 73 to 75 °C.

Which melting point does the source give for `Cn1cc(C(=O)O)c2cccc(F)c21` here?
Its melting point is 225 to 227 °C.

With `CCCc1nn(C)c2c(=O)n(CCOc3ccc(CC(OCC)C(=O)O)cc3)c(CC)nc12` (single isomer, unassigned; (+)) as the compound, how does the melting point read?
The melting point was 144 to 145 °C.

For `O=c1[nH]cnc2cc[nH]c12`, which melting point is on record?
Its melting point is > 300 °C.

With `O=C(Nc1ccc(N2C[C@H]3CN(C(=O)OCc4ccccc4)C[C@H]3C2)cc1)OCc1ccccc1` as the compound, how does the melting point read?
The melting point was 145 to 146 °C.

For `O=C(NCCF)c1ccc(CCN2CC=C(c3c[nH]c(-c4ccc(F)cc4)c3-c3ccncc3)CC2)cc1`, which melting point is on record?
The melting point was 209 to 211 °C.

With `CCC1(CC)c2cc(C)c(C)cc2C(CC)(CC)N1OC(C)=O` as the compound, how does the melting point read?
Its melting point is 80 to 82 °C.

Which melting point does the source give for `COC(=O)CC[C@@H](Cc1ccc(OCc2ccccc2)cc1)NC(=O)CCCCCCc1ccccc1` here?
Its melting point is 94.8 to 95.9 °C.

For `CCc1cc(O)n(-c2ccccn2)n1`, which melting point is on record?
The melting point was 189 °C.

Which melting point does the source give for `CCCc1nn(-c2ccc(C(F)(F)F)cn2)cc1CCCOc1cc(CC(=O)O)ccc1F` here?
The melting point was 88 to 89 °C.

Which melting point does the source give for `N=C(N)Nc1c(Cl)cccc1Cl` here?
The melting point was 213 °C.

Which melting point does the source give for `N#Cc1c(N2CCc3ccccc3CC2)nc(NCCCOc2ccccc2)[nH]c1=O` here?
Its melting point is 175 to 180 °C.

With `Cc1cc(NC(=O)c2cc3cc(F)ccc3n2Cc2ccncc2)cnc1N(C)C` as the compound, how does the melting point read?
The melting point was 282 to 283 °C.

With `CCCCCCCCCCCCCCCCC(C(=O)OC(C)(C)C)C(=O)c1ccc(C(=O)OC(C)C)c(Cl)c1` (stereo not given) as the compound, how does the melting point read?
Its melting point is 44 °C.

With `Cn1ncc(C(=O)N2CCC2)c1C(=O)Nc1ccc2nc(-c3cccnc3)nn2c1` as the compound, how does the melting point read?
The melting point was 272 °C.

For `Cc1nc(C)c(Cl)c(NCc2cccc(Oc3ccc4ncc([N+](=O)[O-])n4n3)c2)n1`, which melting point is on record?
Its melting point is 222 to 223 °C.

With `O=S(=O)(CC(O)(CO)c1ccccc1)c1ccccc1` (stereo not given) as the compound, how does the melting point read?
The melting point was 137 °C.

— a melting point compilation (Tetko et al.; mined from patent text by program, amines drawn as free bases though some values may be those of a salt)
